# According to patent publication US8415380B2 (Hoffmann-La Roche Inc., priority 2007, dated 2013):
# Key:
# rat mGlu2 receptor = molecular target: T1, rat mGlu2 receptor (Rattus norvegicus, UniProt P31421); assay: [3H]-LY354740 binding on mGlu2 transfected CHO cell membranes; conditions: 10 nM [3H]-LY354740, mGlu2 transfected CHO cell membranes, room temperature, 1 hour
# T1 construct: expressed in transfected cells; membranes prepared
# Text: [^3H]-LY354740 Binding on mGlu2 Transfected CHO Cell Membranes Transfection and Cell Culture
# cDNA encoding the rat mGlu2 receptor protein in pBluescript II was subcloned into the eukaryotic expression vector pcDNA I-amp from Invitrogen Ltd (Paisley, UK). This vector construct (pcD1mGR^2) was co-transfected with a psvNeo plasmid encoding the gene for neomycin resistance, into CHO cells by a modified calcium phosphate method described by Chen & Okayama (1988). The cells were maintained in Dulbecco's Modified Eagle medium with reduced L-glutamine (1 mM final concentration), 36 mg/L L-Proline and 10% dialysed foetal calf serum from Gibco-Invitrogen; the medium was supplemented with 500 microM α-methyl-4-carboxyphenylglycine (MCPG). Selection was made in the presence of G-418 (300 ug/ml final concentration). Clones were identified by reverse transcription of 5 μg total RNA, followed by PCR using mGlu2 receptor specific primers 5′-[…]-3′ and 5′-[…]-3′ in 60 mM Tris HCl (pH 10), 15 mM (NH4)2SO4, 2 mM MgCl2, 25 units/ml Taq Polymerase with 30 cycles annealing at 60° C. for 1 min., extention at 72° C. for 30 s, and 1 min. 95° C. denaturation.
# Cells, cultured as above, were harvested and washed three times with cold PBS and frozen at −80° C. The pellet was resuspended in cold 20 mM HEPES-NaOH buffer containing 10 mM EDTA (pH 7.4), and homogenised with a polytron (Kinematica, A G, Littau, Switzerland) for 10 s at 10 000 rpm. After centrifugation for 30 min. at 4° C., the pellet was washed once with cold 20 mM HEPES-NaOH buffer containing 0.1 mM EDTA, (pH 7.4). After a second centrifugation for 30 min. at 4° C. the pellet was resuspended in cold 20 mM HEPES-NaOH buffer containing 0.1 mM EDTA, (pH 7.4). Protein content was measured using the Micro BCA method from Pierce-Perbio (Rockford, Ill., USA) using bovine serum albumin as standard.
# After thawing, the membranes were resuspended in cold 50 mM Tris-HCl buffer containing 2 mM MgCl2 (pH 7.4) (binding buffer). The final concentration of the membranes in the assays was 25 μg protein/ml. Inhibition experiments were performed with membranes incubated with 10 nM [^3H]-LY354740 at room temperature, for 1 hour, in presence of various concentrations of the compound to be tested. Following the incubations, membranes were filtered onto Whatmann GF/B glass fiber filters or onto GF/B Unifilter plates and washed 5 times with cold binding buffer. Non specific binding was measured in the presence of 10 μM (2S,2′R,3′R)-2-(2′3′-Dicarboxycyclopropyl)glycine (DCG IV from Tocris, Ellisville, Mo. USA). After transfer of the filters into plastic vials containing 10 ml of Ultima-gold scintillation fluid from Perkin-Elmer (Boston, Mass., USA), the radioactivity was measured by liquid scintillation in a Tri-Carb 2500 TR counter (Packard, Zurich, Switzerland). For 96-Unifilter plates the radioactivity was measured after addition of Microscint 40 scintillation fluid (Perkin Elmer, Boston Mass.) using a TopCount NXT (Packard)
# The inhibition curves were fitted with a four parameter logistic equation giving IC50 values, and Hill coefficients.
# T1 sequence (P31421 19-872): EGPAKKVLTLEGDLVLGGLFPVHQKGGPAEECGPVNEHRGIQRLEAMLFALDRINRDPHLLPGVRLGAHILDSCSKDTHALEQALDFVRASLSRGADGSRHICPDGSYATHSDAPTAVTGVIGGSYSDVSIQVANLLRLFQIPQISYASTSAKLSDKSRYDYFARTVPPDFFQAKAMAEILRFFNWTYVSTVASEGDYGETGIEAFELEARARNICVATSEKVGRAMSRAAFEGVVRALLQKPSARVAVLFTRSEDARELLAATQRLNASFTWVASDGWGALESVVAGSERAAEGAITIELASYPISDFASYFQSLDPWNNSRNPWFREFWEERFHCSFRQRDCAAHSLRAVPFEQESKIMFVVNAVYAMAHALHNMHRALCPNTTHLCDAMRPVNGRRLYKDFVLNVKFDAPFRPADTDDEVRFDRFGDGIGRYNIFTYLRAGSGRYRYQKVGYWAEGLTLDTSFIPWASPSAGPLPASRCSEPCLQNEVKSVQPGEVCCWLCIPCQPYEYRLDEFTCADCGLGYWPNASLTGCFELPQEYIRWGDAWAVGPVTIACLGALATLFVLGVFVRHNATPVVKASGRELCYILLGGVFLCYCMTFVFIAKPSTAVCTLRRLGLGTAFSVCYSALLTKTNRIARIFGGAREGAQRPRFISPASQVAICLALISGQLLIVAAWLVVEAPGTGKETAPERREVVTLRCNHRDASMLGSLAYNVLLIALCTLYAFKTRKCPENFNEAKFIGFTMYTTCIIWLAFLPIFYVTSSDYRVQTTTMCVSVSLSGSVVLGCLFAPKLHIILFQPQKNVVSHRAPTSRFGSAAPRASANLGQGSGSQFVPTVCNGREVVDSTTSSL
Compound,melting point [°C],Ki (rat mGlu2 receptor) [nM]
Cc1cc(-c2ccc(C(F)(F)F)cn2)nc(-c2cccc(-c3cccc(S(=O)(=O)NC(C)(C)C)c3)n2)n1 [Example 25],–,105
"NS(=O)(=O)c1cccc(-c2cn(-c3nc(-c4ccc(Cl)s4)cc(C(F)(F)F)n3)cn2)c1 [Example 1, 3-{1-[4-(5-Chloro-thiophen-2-yl)-6-trifluoromethyl-pyrimidin-2-yl]-1H-imidazol-4-yl}-benzenesulfonamide]",189,11.6
"NS(=O)(=O)c1cccc(-c2cccc(-c3nc(-c4ccc(Cl)s4)cc(C(F)(F)F)n3)c2)c1 [Example 4, 3′-[4-(5-Chloro-thiophen-2-yl)-6-trifluoromethyl-pyrimidin-2-yl]-biphenyl-3-sulfonic acid amide]",226.5,14.3
"NS(=O)(=O)c1ccc(-c2cc(-c3nc(-c4ccc(C(F)(F)F)nc4)cc(C(F)F)n3)ccn2)s1 [Example 17, 5-{4-[4-Difluoromethyl-6-(6-trifluoromethyl-pyridin-3-yl)-pyrimidin-2-yl]-pyridin-2-yl}-thiophene-2-sulfonic acid amide]",269.5,3.5
"NS(=O)(=O)c1cccc(-c2cccc(-c3nc(-c4ccc(C(F)(F)F)nc4)cc(C(F)(F)F)n3)c2)c1 [Example 2, 3′-[4-Trifluoromethyl-6-(6-trifluoromethyl-pyridin-3-yl)-pyrimidin-2-yl]-biphenyl-3-sulfonic acid amide]",211,1.8
"NS(=O)(=O)c1cccc(-c2cc(-c3nc(-c4ccc(C(F)(F)F)nc4)cc(C(F)F)n3)ccn2)c1 [Example 16, 3-{4-[4-Difluoromethyl-6-(6-trifluoromethyl-pyridin-3-yl)-pyrimidin-2-yl]-pyridin-2-yl}-benzenesulfonamide]",264.5,–
"Nc1ccc(-c2cc(-c3nc(-c4ccc(C(F)(F)F)nc4)cc(C(F)(F)F)n3)ccn2)cn1 [Example 8, 4-[4-Trifluoromethyl-6-(6-trifluoromethyl-pyridin-3-yl)-pyrimidin-2-yl]-[2,3′]bipyridinyl-6′-ylamine]",261.5,15.6
"Nc1ccc(-c2cccc(-c3nc(-c4ccc(C(F)(F)F)nc4)cc(C(F)(F)F)n3)c2)cn1 [Example 12, 5-{3-[4-Trifluoromethyl-6-(6-trifluoromethyl-pyridin-3-yl)-pyrimidin-2-yl]-phenyl}-pyridin-2-ylamine]",244,3.3
"CCC(=O)NS(=O)(=O)c1cccc(-c2cc(-c3nc(-c4ccc(C(F)(F)F)nc4)cc(C(F)(F)F)n3)ccn2)c1 [Example 11, N-Propionyl-3-{4-[4-trifluoromethyl-6-(6-trifluoromethyl-pyridin-3-yl)-pyrimidin-2-yl]-pyridin-2-yl}-benzenesulfonamide]",242,–
"Nc1ncc(-c2cccc(-c3nc(-c4ccc(Cl)s4)cc(C(F)(F)F)n3)c2)cn1 [Example 6, 5-{3-[4-(5-Chloro-thiophen-2-yl)-6-trifluoromethyl-pyrimidin-2-yl]-phenyl}-pyrimidin-2-ylamine]",228,–
"NS(=O)(=O)c1ccc(-c2cccc(-c3nc(-c4ccc(Cl)s4)cc(C(F)(F)F)n3)c2)s1 [Example 7, 5-{3-[4-(5-Chloro-thiophen-2-yl)-6-trifluoromethyl-pyrimidin-2-yl]-phenyl}-thiophene-2-sulfonic acid amide]",233,–
"NS(=O)(=O)c1cccc(-c2cccc(-c3nc(-c4ccc(C(F)(F)F)nc4)cc(C(F)F)n3)c2)c1 [Example 15, 3′-[4-Difluoromethyl-6-(6-trifluoromethyl-pyridin-3-yl)-pyrimidin-2-yl]-biphenyl-3-sulfonic acid amide]",222,–
"Nc1ccc(-c2cn(-c3nc(-c4ccc(C(F)(F)F)nc4)cc(C(F)F)n3)cn2)cn1 [Example 14, 5-{1-[4-Difluoromethyl-6-(6-trifluoromethyl-pyridin-3-yl)-pyrimidin-2-yl]-1H-imidazol-4-yl}-pyridin-2-ylamine]",258,–

# Other lines, results leading:
melting point [°C],Ki (rat mGlu2 receptor) [nM],Compound
246 to 252,–,"Cc1cc(-c2ccc(C(F)(F)F)cn2)nc(-c2cccc(-c3cccc(S(N)(=O)=O)c3)n2)n1 [Example 27, 3-{6-[4-Methyl-6-(5-trifluoromethyl-pyridin-2-yl)-pyrimidin-2-yl]-pyridin-2-yl}-benzenesulfonamide]"
237.5,–,"Cc1cc(-c2ccc(C(F)(F)F)nc2)nc(-c2cccc(-c3ccc(S(N)(=O)=O)s3)c2)n1 [Example 24, 5-{3-[4-Methyl-6-(6-trifluoromethyl-pyridin-3-yl)-pyrimidin-2-yl]-phenyl}-thiophene-2-sulfonic acid amide]"
231 to 233,–,"Cc1cc(-c2ccc(C(F)(F)F)nc2)cc(-c2cccc(-c3ccc(S(N)(=O)=O)s3)c2)n1 [Example 35, 5-[3-(6′-Methyl-6-trifluoromethyl-[3,4′]bipyridinyl-2′-yl)-phenyl]-thiophene-2-sulfonic acid amide]"
220,62,"Cc1cc(-c2ccc(C(F)(F)F)nc2)nc(-n2cnc(-c3ccc(N)nc3)c2)n1 [Example 20, 5-{1-[4-Methyl-6-(6-trifluoromethyl-pyridin-3-yl)-pyrimidin-2-yl]-1H-imidazol-4-yl}-pyridin-2-ylamine]"
220,–,"Cc1cc(-c2ccc(C(F)(F)F)nc2)nc(-c2cccc(-c3cccc(S(N)(=O)=O)c3)c2)n1 [Example 23, 3′-[4-Methyl-6-(6-trifluoromethyl-pyridin-3-yl)-pyrimidin-2-yl]-biphenyl-3-sulfonic acid amide]"
245.5,–,"NS(=O)(=O)c1ccc(-c2cccc(-c3nc(-c4ccc(C(F)(F)F)nc4)cc(C(F)F)n3)c2)s1 [Example 18, 5-{3-[4-Difluoromethyl-6-(6-trifluoromethyl-pyridin-3-yl)-pyrimidin-2-yl]-phenyl}-thiophene-2-sulfonic acid amide]"
255,–,"Cc1cc(-c2ccc(C(F)(F)F)nc2)nc(-c2ccnc(-c3cccc(S(N)(=O)=O)c3)c2)n1 [Example 21, 3-{4-[4-Methyl-6-(6-trifluoromethyl-pyridin-3-yl)-pyrimidin-2-yl]-pyridin-2-yl}-benzenesulfonamide]"
289,–,"Cc1cc(-c2ccc(C(F)(F)F)nc2)nc(-c2ccnc(-c3ccc(S(N)(=O)=O)s3)c2)n1 [Example 22, 5-{4-[4-Methyl-6-(6-trifluoromethyl-pyridin-3-yl)-pyrimidin-2-yl]-pyridin-2-yl}-thiophene-2-sulfonic acid amide]"
227 to 232,–,"Cc1cc(-c2ccc(C(F)(F)F)nc2)cc(-c2cccc(-c3cccc(S(N)(=O)=O)c3)c2)n1 [Example 34, 3′-(6′-Methyl-6-trifluoromethyl-[3,4′]bipyridinyl-2′-yl)-biphenyl-3-sulfonic acid amide]"
254,–,"Cc1cc(-c2ccc(C(F)(F)F)nc2)nc(-c2cccc(-c3cccc(S(N)(=O)=O)c3)n2)n1 [Example 28, 3-{6-[4-Methyl-6-(6-trifluoromethyl-pyridin-3-yl)-pyrimidin-2-yl]-pyridin-2-yl}-benzenesulfonamide]"
